In patent publication US12686694B2, “Method of extracting carbonic acid, aliphatic acids, esters and alcohols from an aqueous medium” (EVONIK OPERATIONS GMBH, priority 2019, dated 2026):

Experiment: Extraction of hexanol from aqueous solution with trialkylphosphine in alkane or pure trialkylphosphine
Assay type: physicochemical
[1] = hexanol extraction without buffer in aqueous phase, mass ratio 9 to 1
[2] = with ammonium acetate buffer in aqueous phase, mass ratio 9 to 1

Equilibrium pH (hexanol extraction without buffer in aqueous phase): 7.01
Aq. Hexanoic acid conc. (after) [1]: 2.40 g/kg
Aq. Hexanoic acid conc. (before) [1]: 3.70 g/kg
Aq. Hexanol conc. (after) [2]: 2.75 g/kg
Org. Hexanol conc. [2]: 12.44 g/kg
Org. Hexanol conc. (without buffer in aqueous phase, mass ratio 9 to 1): 11.65 g/kg
Compound: CCCCCCCCCCCCCC [none (100% tetradecane), tetradecane]
